Reference: patent US20130029962A1, “Substituted Heteroaromatic Pyrazole-Containing Carboxamide and Urea Compounds as Vanilloid Receptor Ligands” (Gruenenthal GmbH, priority 2011, published 2013)

Molecular target: T1, vanilloid receptor 1 (VR1/TRPV1 receptor) (Homo sapiens, UniProt Q8NER1)
T1 construct: expressed in transfected cells; host or cells: CHO K1
Experiment: Functional testing on the vanilloid receptor 1 (VR1/TRPV1): FLIPR Ca2+ influx assay, displacement of capsaicin
Type: cell-based, human being
Set-up: key to mode of action at VR1/TRPV1 (AG, pAG, NE), Cap: AG=agonist; NE=no effect; pAG=partial agonist
Details: 1 μM compound; capsaicin (Cap); human being; read-out: inhibition (as a percentage) at the concentration after @, Cap
Experimental: Furthermore, preference may be given to compounds according to the invention that cause a 50 percent displacement of capsaicin, which is present at a concentration of 100 nM, in a FLIPR assay with CHO K1 cells which were transfected with the human VR1 gene at a concentration of less than 2,000 nM, preferably less than 1,000 nM, particularly preferably less than 300 nM, most particularly preferably less than 100 nM, even more preferably less than 75 nM, additionally preferably less than 50 nM, most preferably less than 10 nM.
In the process, the Ca^2+ influx is quantified in the FLIPR assay with the aid of a Ca^2+-sensitive dye (type Fluo-4, Molecular Probes Europe BV, Leiden, the Netherlands) in a fluorescent imaging plate reader (FLIPR, Molecular Devices, Sunnyvale, USA), as described hereinafter. […]
The number of cells in the suspension is set to 3×10^5 per mL and 150 μL of this suspension are in each case introduced into a recess in the cell culture plates coated as described hereinbefore. In the incubator the plates are left for two to three days at 37° C., 5% by volume of CO2 and 95% relative humidity. Subsequently, the cells are loaded with 2 μM of Fluo-4 and 0.01% by volume of Pluronic F127 (Molecular Probes Europe BV, Leiden, the Netherlands) in HBSS buffer (Hank's buffered saline solution, Gibco Invitrogen GmbH, Karlsruhe, Germany) for 30 min at 37° C., washed 3 times with HBSS buffer and after further incubation for 15 minutes at room temperature used for Ca^2+ measurement in a FLIPR assay. The Ca^2+-dependent fluorescence is in this case measured before and after the addition of substances (λex=488 nm, λem=540 nm). Quantification is carried out by measuring the highest fluorescence intensity (FC, fluorescence counts) over time.
The FLIPR protocol consists of 2 substance additions. First the compounds to be tested (10 μM) are pipetted onto the cells and the Ca^2+ influx is compared with the control (capsaicin 10 μM). This provides the result in % activation based on the Ca^2+ signal after the addition of 10 μM of capsaicin (CP). After 5 minutes' incubation, 100 nM of capsaicin are applied and the Ca^2+ influx is also determined. Desensitising agonists and antagonists lead to suppression of the Ca^2+ influx. The % inhibition is calculated compared to the maximum achievable inhibition with 10 μM of capsazepine. Triple analyses (n=3) are carried out and repeated in at least 3 independent experiments (N=4).
Starting from the percentage displacement caused by different concentrations of the compounds to be tested of general formula I, IC50 inhibitory concentrations which cause a 50-percent displacement of capsaicin were calculated. Ki values for the test substances were obtained by conversion by means of the Cheng-Prusoff equation (Cheng, Prusoff; Biochem. Pharmacol. 22, 3099-3108, 1973).
The affinity of the compounds according to the invention for the vanilloid receptor 1 (VR1/TRPV1 receptor) was determined as described above (pharmacological method I).

T1 sequence (Q8NER1 whole entry): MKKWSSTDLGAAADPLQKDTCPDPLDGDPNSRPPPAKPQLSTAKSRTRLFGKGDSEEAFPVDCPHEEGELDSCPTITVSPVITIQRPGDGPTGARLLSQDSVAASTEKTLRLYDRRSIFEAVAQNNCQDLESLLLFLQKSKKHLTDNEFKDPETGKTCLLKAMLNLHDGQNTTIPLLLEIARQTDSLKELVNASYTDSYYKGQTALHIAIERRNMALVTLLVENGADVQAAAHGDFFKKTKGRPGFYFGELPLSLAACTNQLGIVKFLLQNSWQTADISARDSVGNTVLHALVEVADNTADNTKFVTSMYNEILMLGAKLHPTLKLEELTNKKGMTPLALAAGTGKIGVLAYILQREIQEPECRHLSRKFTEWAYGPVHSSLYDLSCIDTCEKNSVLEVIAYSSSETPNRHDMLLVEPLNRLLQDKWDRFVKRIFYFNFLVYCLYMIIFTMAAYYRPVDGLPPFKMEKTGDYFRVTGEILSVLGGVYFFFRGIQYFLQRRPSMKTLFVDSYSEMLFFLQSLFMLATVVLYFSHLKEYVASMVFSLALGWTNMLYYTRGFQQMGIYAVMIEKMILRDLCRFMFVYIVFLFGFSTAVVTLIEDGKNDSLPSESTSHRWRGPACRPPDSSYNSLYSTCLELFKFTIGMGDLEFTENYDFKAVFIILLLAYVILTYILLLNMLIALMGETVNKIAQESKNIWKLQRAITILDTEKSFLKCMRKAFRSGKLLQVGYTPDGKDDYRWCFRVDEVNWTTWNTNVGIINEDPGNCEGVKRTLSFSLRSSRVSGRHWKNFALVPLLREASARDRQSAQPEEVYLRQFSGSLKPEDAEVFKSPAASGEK

Row | SMILES | inhibition at 1 µM
1 | CC(C)(C)c1cc(CNC(=O)Nc2ccc(CS(C)(=O)=O)nc2)n(-c2cccc(Cl)c2)n1 [Example 159, 1-((3-tert-butyl-1-(3-chlorophenyl)-1H-pyrazol-5-yl)methyl)-3-(6-(methylsulfonylmethyl)pyridin-3-yl)urea] | 29%

Same assay, conditions: 5 μM compound; capsaicin (Cap); human being; read-out: inhibition (as a percentage) at the concentration after @, Cap

Row | SMILES | inhibition at 5 µM
2 | Cc1nc(CO)ccc1NC(=O)NCc1cc(C(F)(F)F)nn1-c1cccc(Cl)c1 [Example 141, 1-((1-(3-chlorophenyl)-3-(trifluoromethyl)-1H-pyrazol-5-yl)methyl)-3-(6-(hydroxymethyl)-2-methylpyridin-3-yl)urea] | 51%
3 | O=C(Cc1ccncn1)NCc1cc(C(F)(F)F)nn1-c1cccc(Cl)c1 [Example 13, N-((1-(3-chlorophenyl)-3-(trifluoromethyl)-1H-pyrazol-5-yl)methyl)-2-(pyrimidin-4-yl)acetamide] | 30%
4 | COCCN(C)c1ccc(NC(=O)NCc2cc(C(F)(F)F)nn2-c2cccc(Cl)c2)cn1 [Example 89, 1-((1-(3-chlorophenyl)-3-(trifluoromethyl)-1H-pyrazol-5-yl)methyl)-3-(6-((2-methoxyethyl)(methyl)amino)pyridin-3-yl)urea] | 31%
5 | CC(C(=O)NCc1cc(C(C)(C)C)nn1-c1cccc(Cl)c1)c1ccccn1 (stereo not shown) [Example 2, N-((3-tert-butyl-1-(3-chlorophenyl)-1H-pyrazol-5-yl)methyl)-2-(pyridin-2-yl)propanamide] | 89%
6 | O=C(NCc1cc(C(F)(F)F)nn1-c1cccc(F)c1)Nc1ccc(CO)nc1 [Example 33, 1-((1-(3-fluorophenyl)-3-(trifluoromethyl)-1H-pyrazol-5-yl)methyl)-3-(6-(hydroxymethyl)pyridin-3-yl)urea] | 41%
7 | CC(C(=O)NCc1cc(C(C)(C)C)nn1-c1cccc(Cl)c1)c1ccc(NC(=O)c2ccccc2)nc1 (stereo not shown) [Example 91, N-(5-(1-((3-tert-butyl-1-(3-chlorophenyl)-1H-pyrazol-5-yl)methylamino)-1-oxopropan-2-yl)pyridin-2-yl)benzamide] | 98%
8 | COCCOc1ccc(NC(=O)NCc2cc(C(F)(F)F)nn2-c2cccc(Cl)c2)cn1 [Example 132, 1-((1-(3-chlorophenyl)-3-(trifluoromethyl)-1H-pyrazol-5-yl)methyl)-3-(6-(2-methoxyethoxy)pyridin-3-yl)urea] | 45%

Same assay, conditions: capsaicin (Cap) as stimulus; Ki from IC50 by Cheng-Prusoff; read-out: (f) Ki (human being) [nM] Cap

Row | SMILES | Ki
9 | CC(C(=O)NCc1cc(C(F)(F)F)nn1-c1cccc(Cl)c1)c1ccc(C(N)=O)nc1 (stereo not shown) [Example 55, 5-(1-((1-(3-chlorophenyl)-3-(trifluoromethyl)-1H-pyrazol-5-yl)methylamino)-1-oxopropan-2-yl)picolinamide] | 23 nM
10 | CC(C(=O)NCc1cc(C(F)(F)F)nn1-c1cccc(Cl)c1)c1cccnc1 (stereo not shown) [Example 8, N-((1-(3-chlorophenyl)-3-(trifluoromethyl)-1H-pyrazol-5-yl)methyl)-2-(pyridin-3-yl)propanamide] | 13 nM
11 | CC(C(=O)NCc1cc(C(C)(C)C)nn1-c1cccc(Cl)c1)c1cnc(NS(C)(=O)=O)c(F)c1 (stereo not shown) [Example 102, N-((3-tert-butyl-1-(3-chlorophenyl)-1H-pyrazol-5-yl)methyl)-2-(5-fluoro-6-(methylsulfonamido)pyridin-3-yl)propanamide] | 8 nM
12 | CC(C)c1cccc(-n2nc(C(F)(F)F)cc2CNC(=O)Nc2ccc(N3CC(O)C3)nc2)c1 [Example 115, 1-(6-(3-hydroxyazetidin-1-yl)pyridin-3-yl)-3-((1-(3-isopropylphenyl)-3-(trifluoromethyl)-1H-pyrazol-5-yl)methyl)urea] | 2 nM
13 | CC(C)(C)c1cc(CNC(=O)Nc2ccc(CO)nc2)n(-c2cccc(F)c2)n1 [Example 160, 1-((3-tert-butyl-1-(3-fluorophenyl)-1H-pyrazol-5-yl)methyl)-3-(6-(hydroxymethyl)pyridin-3-yl)urea] | 75 nM
14 | CC(C)(C)c1cc(CNC(=O)Nc2ccc(C(N)=O)nc2)n(-c2cccc(Cl)c2)n1 [Example 25, 5-(3-((3-tert-butyl-1-(3-chlorophenyl)-1H-pyrazol-5-yl)methyl)ureido)picolinamide] | 31 nM
15 | COc1cc(NC(=O)NCc2cc(C(F)(F)F)nn2-c2cccc(Cl)c2)cnc1N1CCCC1 [Example 123, 1-((1-(3-chlorophenyl)-3-(trifluoromethyl)-1H-pyrazol-5-yl)methyl)-3-(5-methoxy-6-(pyrrolidin-1-yl)pyridin-3-yl)urea] | 83 nM
16 | O=C(NCc1cc(C(F)(F)F)nn1-c1cccc(Cl)c1)Nc1ccc(CO)nc1 [Example 32, 1-((1-(3-chlorophenyl)-3-(trifluoromethyl)-1H-pyrazol-5-yl)methyl)-3-(6-(hydroxymethyl)pyridin-3-yl)urea] | 32 nM
17 | O=C(NCc1cc(C2CC2)nn1-c1cccc(Cl)c1)Nc1ccc(NCCO)nc1 [Example 72, 1-((1-(3-chlorophenyl)-3-cyclopropyl-1H-pyrazol-5-yl)methyl)-3-(6-(2-hydroxyethylamino)pyridin-3-yl)urea] | 17 nM
18 | CS(=O)(=O)CCc1ncc(NC(=O)NCc2cc(C3CC3)nn2-c2cccc(Cl)c2)cc1F [Example 24, 1-((1-(3-chlorophenyl)-3-cyclopropyl-1H-pyrazol-5-yl)methyl)-3-(5-fluoro-6-(2-(methylsulfonyl)ethyl)pyridin-3-yl)urea] | 46 nM
19 | COCCNc1ccc(NC(=O)NCc2cc(C(F)(F)F)nn2-c2cccc(Cl)c2)cn1 [Example 69, 1-((1-(3-chlorophenyl)-3-(trifluoromethyl)-1H-pyrazol-5-yl)methyl)-3-(6-(2-methoxyethylamino)pyridin-3-yl)urea] | 51 nM
20 | CC(C(=O)NCc1cc(C2CC2)nn1-c1cccc(Cl)c1)c1ccc(CCO)nc1 (stereo not shown) [Example 150, N-((1-(3-chlorophenyl)-3-cyclopropyl-1H-pyrazol-5-yl)methyl)-2-(6-(2-hydroxyethyl)pyridin-3-yl)propanamide] | 59 nM
21 | COc1cc(C(C)C(=O)NCc2cc(C(C)(C)C)nn2-c2cccc(Cl)c2)cnc1NS(C)(=O)=O (stereo not shown) [Example 105, N-((3-tert-butyl-1-(3-chlorophenyl)-1H-pyrazol-5-yl)methyl)-2-(5-methoxy-6-(methylsulfonamido)pyridin-3-yl)propanamide] | 2 nM
22 | COc1ccc(C(C)C(=O)NCc2cc(C(F)(F)F)nn2-c2cccc(Cl)c2)cn1 (stereo not shown) [Example 129, N-((1-(3-chlorophenyl)-3-(trifluoromethyl)-1H-pyrazol-5-yl)methyl)-2-(6-methoxypyridin-3-yl)propanamide] | 13 nM
23 | CC(C)(C)c1cc(CNC(=O)Nc2ccc(NCCO)nc2)n(-c2cccc(F)c2)n1 [Example 154, 1-((3-tert-butyl-1-(3-fluorophenyl)-1H-pyrazol-5-yl)methyl)-3-(6-(2-hydroxyethylamino)pyridin-3-yl)urea] | 38 nM
24 | O=C(NCc1cc(C(F)(F)F)nn1-c1cccc(Cl)c1)Nc1ccc(C(O)CO)nc1 (stereo not shown) [Example 145, 1-((1-(3-chlorophenyl)-3-(trifluoromethyl)-1H-pyrazol-5-yl)methyl)-3-(6-(1,2-dihydroxyethyl)pyridin-3-yl)urea] | 121 nM
25 | CC(C)(C)c1cc(CNC(=O)Nc2ccc(N3CCCC3)nc2)n(-c2cccc(Cl)c2)n1 [Example 120, 1-((3-tert-butyl-1-(3-chlorophenyl)-1H-pyrazol-5-yl)methyl)-3-(6-(pyrrolidin-1-yl)pyridin-3-yl)urea] | 23 nM
26 | CS(=O)(=O)CCc1ccc(NC(=O)NCc2cc(C(F)(F)F)nn2-c2cccc(Cl)c2)cn1 [Example 21, 1-((1-(3-chlorophenyl)-3-(trifluoromethyl)-1H-pyrazol-5-yl)methyl)-3-(6-(2-(methylsulfonyl)ethyl)pyridin-3-yl)urea] | 43 nM

Same assay, conditions: capsaicin (Cap); human being

Row | SMILES | mode of action at VR1/TRPV1 (AG, pAG, NE), Cap
27 | CC(C(=O)NCc1cc(C(C)(C)C)nn1-c1cccc(Cl)c1)c1ccccn1 (stereo not shown) [Example 2, N-((3-tert-butyl-1-(3-chlorophenyl)-1H-pyrazol-5-yl)methyl)-2-(pyridin-2-yl)propanamide] | AG
28 | CC(C(=O)NCc1cc(C(C)(C)C)nn1-c1cccc(Cl)c1)c1ccc(NC(=O)c2ccccc2)nc1 (stereo not shown) [Example 91, N-(5-(1-((3-tert-butyl-1-(3-chlorophenyl)-1H-pyrazol-5-yl)methylamino)-1-oxopropan-2-yl)pyridin-2-yl)benzamide] | AG
